Source: patent publication US8101760B2, “Glucocorticoid receptor modulator and methods of use” (Eli Lilly and Company, priority 2007, dated 2012)

Target: T1, human GR (glucocorticoid receptor) (Homo sapiens, UniProt P04150)
T1 construct: expressed in transfected cells; host or cells: HEK293 (lysate, '293-GR lysate')
T1 sequence (P04150 1-777): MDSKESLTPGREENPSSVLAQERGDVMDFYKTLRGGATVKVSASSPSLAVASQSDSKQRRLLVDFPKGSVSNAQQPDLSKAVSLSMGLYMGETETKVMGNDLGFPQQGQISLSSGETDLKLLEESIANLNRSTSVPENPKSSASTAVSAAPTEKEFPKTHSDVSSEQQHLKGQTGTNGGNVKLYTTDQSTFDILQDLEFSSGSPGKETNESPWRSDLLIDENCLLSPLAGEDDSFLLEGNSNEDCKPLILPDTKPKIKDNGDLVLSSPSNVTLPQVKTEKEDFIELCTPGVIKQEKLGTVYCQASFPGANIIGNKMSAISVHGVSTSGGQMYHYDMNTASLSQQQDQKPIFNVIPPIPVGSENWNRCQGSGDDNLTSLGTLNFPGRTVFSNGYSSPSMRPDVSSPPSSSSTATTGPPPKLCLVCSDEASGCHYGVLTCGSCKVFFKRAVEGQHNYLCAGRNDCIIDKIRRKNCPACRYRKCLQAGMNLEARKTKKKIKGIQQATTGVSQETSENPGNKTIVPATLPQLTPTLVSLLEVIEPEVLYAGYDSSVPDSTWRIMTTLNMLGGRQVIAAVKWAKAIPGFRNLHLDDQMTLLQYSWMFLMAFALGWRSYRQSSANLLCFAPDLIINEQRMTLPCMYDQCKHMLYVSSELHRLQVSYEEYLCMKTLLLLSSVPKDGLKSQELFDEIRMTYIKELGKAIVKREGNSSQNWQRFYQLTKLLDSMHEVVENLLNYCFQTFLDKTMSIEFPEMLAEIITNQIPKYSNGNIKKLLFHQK
Assay: Nuclear hormone receptor binding assay, GR
Details: HEK293 cell lysate expressing human GR, [3H]-dexamethasone; mean of 5 determinations
Method: Cell lysates from human embryonic kidney HEK293 cells overexpressing human GR (glucocorticoid receptor), AR (androgen receptor), MR (mineralocorticoid receptor), or PR (progesterone receptor) are used for receptor-ligand competition binding assays to determine Ki values.
Briefly, steroid receptor competition binding assays are run in a buffer containing 20 mM Hepes buffer (pH=7.6), 0.2 mM EDTA, 75 mM NaCl, 1.5 mM MgCl2, 20% glycerol, 20 mM sodium molybdate, 0.2 mM DTT (dithiothreitol), 20 μg/mL aprotinin and 20 μg/mL leupeptin. Typically, steroid receptor binding assays include radio-labeled ligands, such as 0.3 nM [^3H]-dexamethasone for GR binding, 0.36 nM [^3H]-methyltrienolone for AR binding, 0.25 nM [^3H]-aldosterone for MR binding, and 0.29 nM [^3H]-methyltrienolone for PR binding, and either 20 μg 293-GR lysate, 22 μg 293-AR lysate, 20 μg 293-MR lysate or 40 μg 293-PR lysate per well. Assays are typically run in 96-well format. Competing test compounds are added at various concentrations ranging from about 0.01 nM to 10 μM. Non-specific binding is determined in the presence of 500 nM dexamethasone for GR binding, 500 nM aldosterone for MR binding, or 500 nM methyltrienolone for AR and PR binding. […] After an incubation of 2 hours, plates are read in a Wallac Microbeta counter. […]

Ki: 0.35 nM
Compound: CC/C(=C1\c2ccc(Cl)cc2OCc2ncccc21)c1cccc(NS(C)(=O)=O)c1 [Compound (I), (E)-N-{3-[1-(8-Chloro-11H-10-oxa-1-aza-dibenzo[a,d]cyclohepten-5-ylidene)-propyl]-phenyl}-methanesulfonamide]
